Measurements published in US20190350907A1, “METHODS AND PHARMACEUTICAL COMPOSITIONS FOR REDUCING CD95- MEDIATED CELL MOTILITY” (INSERM (INSTITUT NATIONAL DE LA SANTÉ ET DE LA RECHERCHE …, priority 2017, published 2019).
Read-outs that look alike come from different tables or passages of the source.

Tests used:
CD95/PLCγ1 interaction = target: T1, CD95/PLCγ1 interaction (Homo sapiens, UniProt P19174); assay: Renilla luciferase protein-fragment complementation assay (PCA), CD95-CID/PLCγ1-SH3; format: cell-based; details: for effect on interaction of CD95 with PLCγ1: result in words
T1 construct: The PLCγ1-SH3 domain (aa 790-851) (C); expressed in transfected cells; host or cells: HEK293T
T1 sequence (P19174 790-851): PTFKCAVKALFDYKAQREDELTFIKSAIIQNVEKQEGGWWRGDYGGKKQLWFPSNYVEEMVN
Experimental: FIG. 1. […] A. Schematic representation of the protein-fragment complementation assay used with CD95-CID or -DD fused to F2 and PLCγ1-SH3 or FADD-DD fused to F1 to identify inhibitors from the Prestwick library. The Renilla luciferase enzyme was divided into amino-terminal and carboxy-terminal fragments (yellow domains) and fused to the indicated domains. B. Compounds from the Prestwick library were tested against CD95/PLCγ1 or CD95/FADD PCA. […] Inhibition of CD95/FADD interaction is also assessed.
Light emission indicates refolding of the luciferase and reconstitution of enzyme activity through protein/protein interactions. […] Data represent means±SD of three independent experiments. […] Then, the indicated peptides fused with or without the cell-penetrating domain TAT were incubated at the indicated concentrations for 4 hrs and luminescence was assessed. Data represent means±SD of three independent experiments. […].
HEK293T cells were electroporated with 5 μg of DNA using BTM-830 electroporation generator (BTX Instrument Division, Harvard Apparatus) with 10 μg of DNA. Transfected cells were cultured for 24 hrs prior to protein complementation assay analyses as previously described (17). Briefly, transfected cells (10^6) were washed, resuspended in 100 μl PBS and deposited in OptiPlate-96 (PerkinElmer, Waltham, Mass., USA). Coelenterazine-h (5 μM, Sigma) was injected to each well and renilla luciferase activity was monitored for the first 10 seconds using Infinite200Pro (Tecan, Männedorf, Switzerland).
A peptide consisting of the cell-penetrating domain of TAT fused to CID (TAT-CID) binds the SH3 domain of PLCγ1 and thereby, prevents PLCγ1/CD95 interaction and the subsequent induction of the Ca^2+ response (16). […] Briefly, the Renilla luciferase enzyme was divided into two fragments (F1 and F2 fragments). […] Interaction of CD95 with PLCγ1 or FADD allows the reconstitution of RLuc and subsequent light emission (FIG. 1A). The chemical Prestwick library was screened against these PCAs (FIG. 1B). […] These molecules are designated CID inhibitors or CIDINH.

activated PBLs = assay: CD95-mediated cell migration / endothelial transmigration of activated PBLs (Boyden chamber); format: cell-based, human; details: result in words
Experimental: FIG. 3. Drugs inhibit CD95-mediated Ca′ response and cell migration. A. Activated PBLs were loaded with FuraPE3-AM (1 μM) and pre-treated for 1 h with non-toxic concentrations of indicated compounds. T-cells were then stimulated with cl-CD95L (100 ng/mL; arrow). Ratio values (R) were normalized to pre-stimulated values (R0) to yield R/R0 values. Data represent means±the SD. B. Left panel: using Boyden chamber assay, cell migration of parental H9 cells and their counterpart lacking CD95 (CD95-KO) was assessed. Right panel: activated PBLs were pre-incubated in the presence or absence of the indicated drugs for 1 hour using non-toxic concentration and the CD95-mediated cell migration was assessed by Boyden chambers. C. Th17 cells were sorted from blood of healthy donors (peripheral blood mononuclear cell). FACS analyses showing the efficiency of Th17 (CCR6^+ CXCR3^−) cell sorting from healthy donors PBMCs. D. Th17 cells were pre-incubated in the presence or absence of the indicated drugs for 1 hour using non-toxic concentration and cell migration was assessed by Boyden chambers. After membrane hydration of Boyden chambers (Millipore, Molsheim, France) containing 8 μm pore membranes, 10^5 cells were added to the top chamber. The bottom chamber was filled with low serum (1%)-containing medium in the presence or absence of cl-CD95L (100 ng/ml). Cells were incubated for 24 h. To quantify invasion, cells were fixed with methanol and stained with Giemsa. Stained cells were then removed from the top-side of the membrane using a cotton-tipped swab and five representative pictures for each insert were taken of the invading cells from the reverse side. For each experiment, invading cells were lysed and absorbance at 560 nm was measured. Membranes (3 μm pore size) of a Boyden chamber were hydrated in sterile D-PBS (Millipore, Molsheim, France). Thereafter, activated T-lymphocytes (10^6) were added to the top chamber on a confluent monolayer of HUVEC in a low serum (1%)-containing medium. The bottom chamber was filled with low serum (1%)-containing medium in presence or absence of 100 ng/ml of cl-CD95L. In experiments using human sera, 500 μl of serum from either healthy donors or SLE patients was added to the lower chamber. Cells were cultured for 24 h at 37° C. in a 5% CO2, humidified incubator. Transmigrated cells were counted in the lower reservoir by flow cytometry using a standard of 2.5×10^4 fluorescent beads (Flow-count, Beckman Coulter).

[1] = system: CD95-mediated Ca2+ signaling pathway in Th17 cells; assay: CD95-mediated Ca2+ response in Th17 cells; format: cell-based, human; details: drugs 1 μM for 1 h, s-CD95L 100 ng/mL, Fluo2 LR-AM
Experimental: A. Activated PBLs were loaded with FuraPE3-AM (1 μM) and pre-treated for 1 h with non-toxic concentrations of indicated compounds. T-cells were then stimulated with thapsigargin (1 μM; arrow). Ratio values (R) were normalized to pre-stimulated values (R0) to yield R/R0 values. Data represent means±the SD. B. Th17 cells were sorted from healthy donors and loaded with FuraPE3-AM (1 μM). Th17 cells were pre-treated for 1 h with non-toxic concentrations of ritonavir or diflunisal (1 μM). T-cells were then stimulated with cl-CD95L (100 ng/mL; arrow). Ratio values (R) were normalized to pre-stimulated values (R0) to yield R/R0 values. Data represent means±the SD.
Human PBLs were sorted using flow cytometry cell sorting to isolate Th17 (A) according to their phenotype (CD3+CD4+CXCR5−CCR6+CXCR3−CD45RA−) and Tfh (B) (CD4+CXCR5+ICOS+PD−1+CD45RA−). Cells were pre-incubated with Indicated drugs (1 μM) for 1 h and then stimulated with 100 ng/mL of s-CD95L. [Ca2+]CYT was assessed in Fluo2 LR-AM (3 μM)-loaded cells. Data represent means±the SD of 3 independent experiments.
Peripheral blood mononuclear cells (PBMC) were isolated from buffy-coat by density gradient using lymphocyte separation medium (Eurobio, Les Ulis, France). PBMCs were then subjected to selection using a cocktail of antibody-coated magnetic beads: CCR6^+ CXCR3^−CD4^+ cells (Th17 cells) were sorted with Human Th17 Enrichment kit (STEMCELL Technologies, Grenoble, France). Cell sorting efficiency was evaluated by FACS.
T-cells were loaded with Fura-PE3-AM (1 μM) at room temperature for 30 min in Hank's Balanced Salt Solution (HBSS). After washing, the cells were incubated for 15 min in the absence of Fura-PE3-AM to complete de-esterification of the dye. Cells were placed in a temperature controlled chamber (37° C.) of an inverted epifluorescence microscope (Olympus IX70) equipped with an x40 UApo/340-1.15 W water-immersion objective (Olympus), and fluorescence micrograph images were captured at 510 nm and 12-bit resolution by a fast-scan camera (CoolSNAP fx Monochrome, Photometrics). To minimize UV light exposure, a 4×4 binning function was used. Fura-PE3 was alternately excited at 340 and 380 nm, and the ratios of the resulting images (emission filter at 520 nm) were produced at constant intervals (10 seconds). The Fura-PE3 ratio (Fratio 340/380) images were analyzed offline with Universal Imaging software, including Metafluor and Metamorph. Fratio reflects the intracellular Ca^2+ concentration changes. Each experiment was repeated at least 3 times, and the average of more than 20 single-cell traces per experiment was analyzed.

[2] = system: CD95-mediated Ca2+ signaling pathway in Tfh cells; assay: CD95-mediated Ca2+ response in Tfh cells; format: cell-based, human; details: drugs 1 μM for 1 h, s-CD95L 100 ng/mL, Fluo2 LR-AM
[3] = target: T2, PLCγ1-SH3 domain (aa 790-851) fused to F1 fragment of Renilla luciferase, P19174; assay: Renilla luciferase protein-fragment complementation assay in non-permeabilized HEK cells (CID-CD95-F2 / PLCγ1-SH3-F1), peptide 4 h; displaces CID-CD95
T2 chain: T1 sequence (P19174 790-851)

[4] = target: T2, PLCγ1-SH3 domain (aa 790-851) fused to …

Molecule	effect on interaction of CD95 with PLCγ1 (CD95/PLCγ1 interaction)	effect on endothelial transmigration of PBLs (activated PBLs)	effect on CD95-mediated Ca2+ signaling pathway in Th17 cells [1]	effect on CD95-mediated Ca2+ signaling pathway in Tfh cells [2]	further results
COc1ccc(-c2cc(=S)ss2)cc1 [anethole, 5-(4-methoxyphenyl)dithiole-3-thione]	efficiently prevented	inhibited	–	–	–
COC(=O)N[C@H](C(=O)N[C@@H](Cc1ccccc1)[C@@H](O)CN(Cc1ccc(-c2ccccn2)cc1)NC(=O)[C@@H](NC(=O)OC)C(C)(C)C)C(C)(C)C [atazanavir]	–	–	efficiently abrogated	efficiently abrogated	–
CC(C)CN(C[C@@H](O)[C@H](Cc1ccccc1)NC(=O)O[C@H]1CO[C@H]2OCC[C@H]21)S(=O)(=O)c1ccc(N)cc1 [darunavir]	–	–	efficiently abrogated	efficiently abrogated	–
COc1cccc2c1C(=O)c1c(O)c3c(c(O)c1C2=O)C[C@@](O)(C(C)=O)C[C@@H]3O[C@H]1C[C@H](N)[C@H](O)[C@H](C)O1 [daunorubicin, (7S,9S)-9-acetyl-7-[(2R,4S,5S,6S)-4-amino-5-hydroxy-6-methyloxan-2-yl]oxy-6,9,11-trihydroxy-4-methoxy-8,10-dihydro-7H-tetracene-5,12-dione]	efficiently prevented	inhibited	–	–	–
Cc1cccc(C)c1OCC(=O)N[C@@H](Cc1ccccc1)[C@@H](O)C[C@H](Cc1ccccc1)NC(=O)[C@H](C(C)C)N1CCCNC1=O [lopinavir]	–	–	efficiently abrogated	efficiently abrogated	–
CN(CCOc1ccc(CC2SC(=O)NC2=O)cc1)c1ccccn1 (stereo not shown) [rosiglitazone, 5-[[4-[2-[methyl(pyridin-2-yl)amino]ethoxy]phenyl]methyl]-1,3-thiazolidine-2,4-dione]	efficiently prevented	inhibited	–	–	–
TAT-minCID: heptapeptide minCID (TCRKHRK, SEQ ID NO:1) fused with the cell-penetrating domain TAT (not fully specified; chains of the parent or of the whole protein)	–	–	–	–	IC50 (CD95/PLCγ1 interaction; PCA in HEK cells, peptides incubated for 4 hours, read-out: IC50, disruption of CD95/PLCγ1 interaction by peptides): 11.5 µM
TCRKHRK (modifications not checked) [minCID (minimal CID, amino acids 182 to 188 of CD95, TCRKHRK)]	–	–	–	–	IC50 [3]: 35.5 µM
KRKEVQKTCRKHRKENQGSHESPTLNPETVAINLSD (modifications not checked)	–	–	–	–	IC50 [4]: 10.8 µM
TCRKHRK (modifications not checked) [TAT-minCID (cell-penetrating domain TAT fused to minCID, TCRKHRK)]	–	–	–	–	IC50 [4]: 11.5 µM
